Assay results reported in patent US20230087825A1, “SMARCA DEGRADERS AND USES THEREOF” (Kymera Therapeutics, Inc., priority 2019, published 2023).

Biological target: T1, SMARCA2 (Homo sapiens, UniProt P51531)
T1 construct: host or cells: NCI-H1299
Assay: MSD SMARCA2 degradation in NCI-H1299 cell line
Type: cell-based
Conditions: NCI-H1299 cells; percentage of SMARCA2 degradation after 24 hours
Procedure: Example 12. MSD SMARCA2 Degration in NCI-H1299 Cell Line
Cell Culture: Cells were cultured in exponential growth phase.
Compound Preparation and Treatment: NCI-H1299 cells were seeded into the 96-well plate at 4.0*10^4 cells per 100 ul per well. Incubate the plate in the incubator overnight. The next day, compounds were diluted to designed stock concentration by TECAN, then perform a 3 fold, 9-point dilution via transferring 15 uL compound into 30 μL DMSO using Apricot. 200 nL diluted compound from compound source plate were transferred into the 96-intermediate plate as designated by using Echo550, followed with 100 ul culture medium to make the 2× compound solution. Cell plate were changed with 80 ul of fresh culture medium and 80 ul of 2× compound solution was added into the well to achieve the final designed concentration. Cell plate was then shaken at 720 rpm for 5 min and incubated for 24 hours in the incubator.
Sample Preperation: Media was aspirated from the cultures and the plate was washed with PBS twice. […]
MSD Procedure: The MSD plate was coated with 40 ul cell lysate and incubated at 4° C. overnight. […] MSD plate was washed 3 times with 150 ul 1×TBST per well and 2× MSD reading buffer was added, 150 ul per well, and diluted from 4× with water. MSD instrument was then read.
Data Analysis: The percentage of relative level of SMARCA2 level was calculated following equation below. […]

T1 sequence (P51531 whole entry): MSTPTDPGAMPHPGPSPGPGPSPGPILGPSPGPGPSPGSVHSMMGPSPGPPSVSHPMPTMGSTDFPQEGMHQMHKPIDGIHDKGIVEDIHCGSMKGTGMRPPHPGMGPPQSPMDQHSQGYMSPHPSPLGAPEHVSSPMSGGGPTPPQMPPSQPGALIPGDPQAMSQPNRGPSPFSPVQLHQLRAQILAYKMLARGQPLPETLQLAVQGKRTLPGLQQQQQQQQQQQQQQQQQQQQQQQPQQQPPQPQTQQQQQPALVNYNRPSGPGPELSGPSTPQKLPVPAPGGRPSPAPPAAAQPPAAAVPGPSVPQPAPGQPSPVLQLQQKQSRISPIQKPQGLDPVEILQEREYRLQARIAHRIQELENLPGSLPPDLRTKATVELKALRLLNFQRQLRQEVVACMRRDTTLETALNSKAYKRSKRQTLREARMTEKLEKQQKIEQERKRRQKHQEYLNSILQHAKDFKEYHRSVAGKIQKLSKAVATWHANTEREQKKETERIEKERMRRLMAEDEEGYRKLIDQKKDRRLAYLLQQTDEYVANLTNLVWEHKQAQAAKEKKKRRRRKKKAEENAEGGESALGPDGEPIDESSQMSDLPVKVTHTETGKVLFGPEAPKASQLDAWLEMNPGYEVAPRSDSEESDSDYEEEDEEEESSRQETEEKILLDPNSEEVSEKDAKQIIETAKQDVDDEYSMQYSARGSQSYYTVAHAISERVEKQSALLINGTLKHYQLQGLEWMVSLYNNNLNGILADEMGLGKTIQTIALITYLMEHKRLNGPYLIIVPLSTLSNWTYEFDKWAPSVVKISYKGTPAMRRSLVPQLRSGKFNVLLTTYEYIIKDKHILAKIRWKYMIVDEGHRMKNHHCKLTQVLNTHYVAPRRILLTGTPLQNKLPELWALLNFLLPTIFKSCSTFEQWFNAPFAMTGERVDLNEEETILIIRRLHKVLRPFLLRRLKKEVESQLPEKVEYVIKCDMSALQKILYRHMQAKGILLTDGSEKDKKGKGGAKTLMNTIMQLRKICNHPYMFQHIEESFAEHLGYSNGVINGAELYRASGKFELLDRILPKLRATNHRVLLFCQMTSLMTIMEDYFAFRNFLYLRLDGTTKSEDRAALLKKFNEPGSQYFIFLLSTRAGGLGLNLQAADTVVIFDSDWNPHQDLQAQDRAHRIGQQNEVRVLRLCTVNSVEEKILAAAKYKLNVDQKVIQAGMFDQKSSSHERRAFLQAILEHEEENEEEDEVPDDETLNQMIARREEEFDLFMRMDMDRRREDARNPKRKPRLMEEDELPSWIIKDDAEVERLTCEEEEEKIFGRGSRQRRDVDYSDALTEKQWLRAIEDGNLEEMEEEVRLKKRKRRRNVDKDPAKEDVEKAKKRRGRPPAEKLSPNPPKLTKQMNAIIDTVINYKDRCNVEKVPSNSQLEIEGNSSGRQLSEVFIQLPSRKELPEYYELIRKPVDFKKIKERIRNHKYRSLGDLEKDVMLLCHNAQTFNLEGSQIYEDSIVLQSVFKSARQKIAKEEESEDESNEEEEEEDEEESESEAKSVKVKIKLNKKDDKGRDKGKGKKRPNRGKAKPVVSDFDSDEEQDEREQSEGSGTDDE

Row | Structure (SMILES) | Dmax
1 | Nc1nnc(-c2ccccc2O)cc1-c1ccc(CN2CCN(CCCCCc3cccc4c3c3ccccc3n4C3CCC(=O)NC3=O)CC2)cc1 (centres unmarked) [I-7] | 70 to 90%
2 | Nc1nnc(-c2ccccc2O)cc1-c1ccc(CN2CCN(CCCCOCCCc3ccc4c(c3)c3ccccc3n4C3CCC(=O)NC3=O)CC2)cc1 (centres unmarked) [I-10] | 50 to 70%
